Results taken from patent US9956319B2, “Compositions useful as antibiofilm or antimicrobial agents and methods using same” (BAYLOR COLLEGE OF MEDICINE, priority 2012, dated 2018).

Tests used:
Assay type in all cases: cell-based
Pseudomonas aeruginosa = test: Bacterial colony counts extracted from impregnated central venous catheters after exposure to bacteria; conditions: catheter impregnated with 100 mg/ml, 10^5 cfu/ml suspension in TSB, 37° C., 24 hours
Protocol: To evaluate the anticolonization/antimicrobial activity of central venous catheters treated with lipoamide, segments of 7 French triple lumen polyurethane central venous catheters were impregnated with lipoamide using the same patented method described in Example 1 (U.S. Pat. No. 6,589,591) with 100 mg/ml (final solution volume) of the agent. After the impregnation process and drying, Catheter segments were then placed in the impregnating solution at 55° C. with agitation for 1 hour in the dark. Catheter segments were then removed from the solution and dried under a fume hood overnight in the dark. Catheter segments were rinsed with deionized water the next day and let dry for another 18 hours in the dark. After the impregnation process and drying, one-centimeter segments of impregnated catheters were individually placed in 1 ml of 10^5 cfu/ml suspensions of MRSE, MRSA, or P. aeruginosa in trypticase soy broth (TSB) at 37° C. for 24 hours. One-centimeter segments of non-impregnated catheters were also incubated individually in each bacterial suspension at 37° C. for 24 hours as controls. […]
(§1) Aliquots of each suspension and subsequent dilutions were cultured quantitatively.

[1] = test system: vancomycin-resistant Enterococcus (VRE); test: Zones of inhibition of impregnated catheter segments, modified Kirby-Bauer method
Protocol: To evaluate the antimicrobial activity of central venous catheters treated with α-lipoic acid or its combination with gentamicin, segments of 7 French triple lumen polyurethane central venous catheters were impregnated with α-lipoic acid, gentamicin, or the combination of lipoic acid and gentamicin using the same patented method described in Example 1 with 50 mg/ml of each agent (for the final solution volume). After the impregnation process and drying, zones of inhibition were performed on one-centimeter segments according to a modified Kirby-Bauer method against MSSE, MRSE, MRSA, K. pneumoniae, E. coli, P. mirabilis, Pseudomonas aeruginosa, and Candida albicans. Each segment was half embedded in the center of a Muller-Hinton agar plate that had been previously inoculated with an individual organism. Prior to placing the catheter segments in agar, each organism was grown for 18 hours in TSB to a concentration of 0.5 McFarland (10^8 cfu/ml). A cotton swab was placed in the suspension and streaked across the surface of the Muller-Hinton agar plate to cover the entire plate. All plates were placed in a 37° C. incubator for 24 hours. Zones were measured in mm after the incubation period (Table 2).
(§2) To evaluate the antimicrobial activity of central venous catheters treated with lipoamide or its combination with levofloxacin, segments of 7 French triple lumen polyurethane central venous catheters were impregnated with levofloxacin or the combinations of lipoamide and levofloxacin using the same patented method described in Example 1 (U.S. Pat. No. 6,589,591) with 100 mg/ml (final solution volume) of each agent. […] Zones of inhibition were measured in mm after the incubation period (Table 4).
as §2, with “doxycycline,” for “levofloxacin,”, “doxycycline” for “levofloxacin”, “5).” for “4).”
as §2, with “dihydrolipoic acid,” for “lipoamide or its combination with levofloxacin,”, “dihydrolipoic acid” for “levofloxacin or the combinations of lipoamide and levofloxacin”, “25” for “100”, “the” for “each”, “6).” for “4).”

[2] = test system: methicillin-sensitive Staphylococcus epidermidis (MSSE); test: Bacterial colony counts extracted from impregnated central venous catheters after incubation in bacterial suspension; conditions: catheter impregnated with 50 mg/ml, 10^5 cfu/ml suspension in TSB, 37° C., 24 hours
Protocol: (§3) In this example, segments of 7 French triple lumen polyurethane central venous catheters were impregnated with α-lipoic acid using the method described elsewhere (U.S. Pat. No. 6,589,591) and were subjected to zones of inhibition. Briefly, α-lipoic acid was dissolved in 88% formic acid (at a final solution concentration of 50 mg/ml). 85% ortho-Phosphoric acid and glycerol were then added to the solution at 79:8:13 (v/v/v) (formic acid:ortho-phosphoric acid:glycerol). After mixing the solution, 300 mg/ml of potassium chloride was added to the final solution and mixed.
(§4) Catheter segments were then placed in the impregnating solution at 55° C. with agitation for 1 hour in the dark. Catheter segments were then removed from the solution and dried under a fume hood overnight in the dark. Catheter segments were rinsed with deionized water the next day and let dry for another 18 hours in the dark. After the impregnation process and drying, one-centimeter segments of impregnated catheters were individually placed in 1 ml of 10^5 cfu/ml suspensions of methicillin-sensitive Staphylococcus epidermidis (MSSE), methicillin-resistant Staphylococcus epidermidis (MRSE), methicillin-resistant Staphylococcus aureus (MRSA), Klebsiella pneumoniae, Escherichia coli, or Proteus mirabilis in trypticase soy broth (TSB) at 37° C. for 24 hours. One-centimeter segments of non-impregnated catheters were also incubated individually in each bacterial suspension at 37° C. for 24 hours as controls. Catheter segments were removed from each bacterial suspension after this period, shaken to remove excess broth containing free-floating bacteria from their surfaces, placed in 1 ml of normal saline, sonicated for 5 minutes, and vortexed for 30 seconds.
as §1

Proteus mirabilis = test: as above; conditions: catheter impregnated with 50 mg/ml, 10^5 cfu/ml suspension in TSB, 37° C., 24 hours
Protocol: as §3, §4, §1

Escherichia coli = test: as above; conditions: catheter impregnated with 50 mg/ml, 10^5 cfu/ml suspension in TSB, 37° C., 24 hours
Protocol: as §3, §4, §1

Klebsiella pneumoniae I = test: as above; conditions: catheter impregnated with 50 mg/ml, 10^5 cfu/ml suspension in TSB, 37° C., 24 hours
Protocol: as §3, §4, §1

How did the “Mean bacterial colony counts extracted from catheter” value (Pseudomonas aeruginosa) turn out when `NC(=O)CCCCC1CCSS1` (stereo not shown) [Lipoamide, lipoamide] was run?
Its value is 210000.

And the zone of inhibition at 100000 µg/mL ([1]; Enterococcus, catheter impregnated with 100 mg/ml of each agent)?
The zone of inhibition at 100000 µg/mL was 4 mm.

`O=C(O)CCCCC1CCSS1` (stereo not shown) [Lipoic acid, 1,2-dithiolane-3-pentanoic acid] was tested. Which “Bacterial colony counts extracted from central venous catheters” value [2] did it give?
Its value is 10.

What about the “Bacterial colony counts extracted from central venous catheters” value (Proteus mirabilis) of the same molecule?
The value was 0.

And the “Bacterial colony counts extracted from central venous catheters” value (Escherichia coli)?
The value was 1.4 × 10^4.

And the “Bacterial colony counts extracted from central venous catheters” value (Klebsiella pneumoniae I)?
Its value is 1.1 × 10^6.

How did the Zones of inhibition ([1]; catheter impregnated with 25 mg/ml of the agent) turn out when `O=C(O)CCCCC(S)CCS` (stereo not shown) [Dihydrolipoic acid, 6,8-dimercaptooctanoic acid] was run?
The Zones of inhibition was 14 mm.
